The values that follow are results of earlier work, collected in US20020004528A1, “Method for the treatment of insomnia” (priority 1998, published 2002).

For this data set the following is noted: one study mentioned in U.S. Pat. No. 5,510,381 (use of gabapentin to treat mania).

As to “1-(aminomethyl)-cyclohexane acetic acid [gabapentin]”, the “effect on delta-wave (deep) sleep” value is given as “enhance delta-wave (deep) sleep”.
